Activity calls are given as the source filed them. The calls are words filed in the database; no cut-off is given here.
Assays:
GL261 [1] = assay: Cytotoxicity against mouse GL261 cells assessed as reduction in cell viability incubated for 24 hrs by CCK8 assay; format: functional, cell-based; conditions: GL261, 24 h
Hs 683 = assay: Cytotoxicity against human Hs 683 cells assessed as reduction in cell viability incubated for 24 hrs by CCK8 assay; format: functional, cell-based; conditions: Hs 683, 24 h
U-87 MG [2] = assay: Cytotoxicity against human U87 cells assessed as reduction in cell viability incubated for 24 hrs by CCK8 assay; format: functional, cell-based, U-87MG ATCC
[3] = Toxicity in NCG mouse […] with human U87 cells assessed as liver damage at 2.5 mg/kg, ip administered every other day for 5 days and measured after 7 days post first dose by H and E staining based assay; format: organism-based; conditions: in vivo, 168 h, time 7 day
Homo sapiens [4] = species on record: Homo sapiens; assay: Binding affinity to CM5 sensor chip immobilized human ID2 assessed as maximum response by SPR analysis; conditions: filed as antagonist
U-87 MG [5] = assay: Induction of apoptosis in human U87 cells assessed as late apoptotic cells at 50 uM measured after 24 hrs by annexin V-FITC/propidium iodide staining based flow cytometry analysis (reference value: 2.56%); format: functional, U-87MG ATCC
GL261 [6] = assay: Induction of apoptosis in mouse GL261 cells assessed as late apoptotic cells at 50 uM measured after 24 hrs by annexin V-FITC/propidium iodide staining based flow cytometry analysis (reference value: 1.01%); format: functional
GL261 [7] = assay: Induction of apoptosis in mouse GL261 cells assessed as early apoptotic cells at 25 uM measured after 24 hrs by annexin V-FITC/propidium iodide staining based flow cytometry analysis (reference value: 1.67%); format: functional
U87 [8] = assay: Inhibition of ID2/KDR signalling in human U87 cells assessed as reduction in KDR mRNA expression at 12.5 to 50 uM measured after 24 hrs by qRT-PCR analysis; format: cell-based; conditions: filed as antagonist, dose 12.5-50 µM
GL261 [9] = assay: Induction of apoptosis in mouse GL261 cells assessed as viable cells at 25 uM measured after 24 hrs by annexin V-FITC/propidium iodide staining based flow cytometry analysis (reference value: 96.1%); format: functional; conditions: read-out: Activity
GL261 [10] = assay: Induction of apoptosis in mouse GL261 cells assessed as viable cells at 50 uM measured after 24 hrs by annexin V-FITC/propidium iodide staining based flow cytometry analysis (reference value: 96.1%); format: functional; conditions: read-out: Activity
GL261 [11] = assay: Induction of apoptosis in mouse GL261 cells assessed as late apoptotic cells at 25 uM measured after 24 hrs by annexin V-FITC/propidium iodide staining based flow cytometry analysis (reference value: 1.01%); format: functional
GL261 [12] = assay: Induction of apoptosis in mouse GL261 cells assessed as dead cells at 50 uM measured after 24 hrs by annexin V-FITC/propidium iodide staining based flow cytometry analysis (reference value: 1.22%); format: functional
L02 = assay: Cytotoxicity against human L02 cells assessed as reduction in cell viability at up to 100 nM incubated for 24 hrs by CCK8 assay; format: cell-based; conditions: l02, 24 h
Homo sapiens [13] = species on record: Homo sapiens; assay: Binding affinity to CM5 sensor chip immobilized human ID2 assessed as association constant by SPR analysis; conditions: filed as antagonist
U-87 MG [14] = assay: Induction of apoptosis in human U87 cells assessed as dead cells at 25 uM measured after 24 hrs by annexin V-FITC/propidium iodide staining based flow cytometry analysis (Rvb =3.52 %); format: functional, U-87MG ATCC
U-87 MG [15] = assay: Induction of apoptosis in human U87 cells assessed as late apoptotic cells at 25 uM measured after 24 hrs by annexin V-FITC/propidium iodide staining based flow cytometry analysis (reference value: 2.56%); format: functional, U-87MG ATCC
GL261 [16] = assay: Antimigratory activity against mouse GL261 cells assessed as inhibition of cell migration measured after 24 hrs by crystal violet staining based inverted microscopic analysis; format: functional
GL261 [17] = assay: Antimigratory activity against mouse GL261 cells assessed as reduction in wound closure at 12.5 uM measured up to 24 hrs by scratch wound healing assay (Rvb =63.3+/-0.78%); format: functional; set-up: scale not given: the % may be the effect or the level left; conditions: time hrs <=24
[18] = Toxicity in NCG mouse […] with human U87 cells assessed as kidney damage at 2.5 mg/kg, ip administered every other day for 5 days and measured after 7 days post first dose by H and E staining based assay; format: organism-based; conditions: in vivo, 168 h, time 7 day
U87 [19] = assay: Inhibition of ID2/KDR signalling in human U87 cells assessed as reduction in ID2 mRNA expression at 12.5 to 50 uM measured after 24 hrs by qRT-PCR analysis; format: cell-based; conditions: filed as antagonist, dose 12.5-50 µM
U87 [20] = assay: Inhibition of ID2/KDR signalling in human U87 cells assessed as decrease in KDR protein level measured after 24 hrs by western blot analysis; format: cell-based; conditions: filed as antagonist
U-87 MG [21] = assay: Induction of apoptosis in human U87 cells assessed as early apoptotic cells at 50 uM measured after 24 hrs by annexin V-FITC/propidium iodide staining based flow cytometry analysis (reference value: 4.35%); format: functional, U-87MG ATCC
[22] = Toxicity in NCG mouse […] with human U87 cells assessed as lung damage at 2.5 mg/kg, ip administered every other day for 5 days and measured after 7 days post first dose by H and E staining based assay; format: organism-based; conditions: in vivo, 168 h, time 7 day
[23] = Antitumor activity against human U87 cells xenografted in NCG mouse assessed as tumor growth inhibition at 2.5 mg/kg, ip administered every other day for 5 days relative to control; format: functional, U-87MG ATCC; set-up: scale not given: the % may be the effect or the level left; conditions: time 5 day
GL261 [24] = assay: Antiinvasive activity against mouse GL261 cells assessed as inhibition of cell invasion measured after 24 hrs by crystal violet staining based inverted microscopic analysis; format: functional
U-87 MG [25] = assay: Induction of apoptosis in human U87 cells assessed as viable cells at 50 uM measured after 24 hrs by annexin V-FITC/propidium iodide staining based flow cytometry analysis (reference value: 89.6%); format: functional, U-87MG ATCC; conditions: read-out: Activity
U87 [26] = assay: Inhibition of ID2/KDR signalling in human U87 cells assessed as reduction in MMP9 expression at 12.5 to 50 uM measured after 24 hrs by western blot analysis; format: cell-based; conditions: filed as antagonist, dose 12.5-50 µM
[27] = Aqueous solubility of compound at up to 80 uM measured after 10 mins by optical microscopic analysis; format: physicochemical; conditions: buffer
[28] = Antitumor activity against human U87 cells xenografted in NCG mouse assessed as reduction in tumor weight at 2.5 mg/kg, ip administered every other day for 5 days and measured after 12 days relative to control; format: functional, U-87MG ATCC; set-up: scale not given: the % may be the effect or the level left; conditions: time 12 day
U-87 MG [29] = assay: Antiinvasive activity against human U87 cells assessed as inhibition of cell invasion measured after 24 hrs by crystal violet staining based inverted microscopic analysis; format: functional; conditions: U-87MG ATCC
U87 [30] = assay: Inhibition of ID2/KDR signalling in human U87 cells assessed as decrease in ID2 protein level measured after 24 hrs by western blot analysis; format: cell-based; conditions: filed as antagonist
U-87 MG [31] = assay: Antimigratory activity against human U87 cells assessed as reduction in wound closure at 12.5 uM measured up to 24 hrs by scratch wound healing assay (Rvb =61.5+/-10.21%); format: functional, U-87MG ATCC; set-up: scale not given: the % may be the effect or the level left; conditions: time hrs <=24
U87 [32] = assay: Inhibition of ID2/KDR signalling in human U87 cells assessed as decrease in VEGFA protein level measured after 24 hrs by western blot analysis; format: cell-based; conditions: filed as antagonist
[33] = Toxicity in NCG mouse xenografted with human U87 cells assessed as heart damage at 2.5 mg/kg, ip administered every other day for 5 days and measured after 7 days post first dose by H and E staining based assay; format: organism-based; conditions: in vivo, 168 h, time 7 day
U-87MG ATCC [34] = assay: Antitumor activity against human U87 cells xenografted in NCG mouse assessed as reduction in CD31 marker expression in tumor at 2.5 mg/kg, ip administered every other day for 5 days and measured after 7 days post first dose by immunohistochemical analysis; format: functional, organism-based; conditions: time 7.0 day
NIH3T3 = assay: Cytotoxicity against mouse 3T3 cells assessed as reduction in cell viability at up to 100 nM incubated for 24 hrs by CCK8 assay; format: cell-based; conditions: nih3t3, 24 h
[35] = Binding affinity to CM5 sensor chip immobilized human ID2 assessed as dissociation constant by SPR analysis
[36] = Toxicity in NCG mouse xenografted with human U87 cells assessed as reduction in body weight at 2.5 mg/kg, ip administered every other day for 5 days and measured after 12 days; format: organism-based; conditions: in vivo, 288 h, time 12 day
U-87 MG [37] = assay: Antimigratory activity against human U87 cells assessed as inhibition of cell migration measured after 24 hrs by crystal violet staining based inverted microscopic analysis; format: functional; conditions: U-87MG ATCC
U-87MG ATCC [38] = assay: Antitumor activity against human U87 cells xenografted in NCG mouse assessed as reduction in Ki67 expression in tumor at 2.5 mg/kg, ip administered every other day for 5 days and measured after 7 days post first dose by immunohistochemical analysis; format: functional, organism-based; conditions: time 7.0 day
GL261 [39] = assay: Induction of apoptosis in mouse GL261 cells assessed as early apoptotic cells at 50 uM measured after 24 hrs by annexin V-FITC/propidium iodide staining based flow cytometry analysis (reference value: 1.61%); format: functional
U-87 MG [40] = assay: Induction of apoptosis in human U87 cells assessed as dead cells at 50 uM measured after 24 hrs by annexin V-FITC/propidium iodide staining based flow cytometry analysis (Rvb =3.52 %); format: functional, U-87MG ATCC
U-87 MG [41] = assay: Induction of apoptosis in human U87 cells assessed as viable cells at 25 uM measured after 24 hrs by annexin V-FITC/propidium iodide staining based flow cytometry analysis (reference value: 89.6%); format: functional, U-87MG ATCC; conditions: read-out: Activity
U87 [42] = assay: Inhibition of ID2/KDR signalling in human U87 cells assessed as increase in PTEN expression at 12.5 to 50 uM measured after 24 hrs by western blot analysis; format: cell-based; conditions: filed as antagonist, dose 12.5-50 µM
U87 [43] = assay: Inhibition of ID2/KDR signalling in human U87 cells assessed as reduction in MMP2 expression at 12.5 to 50 uM measured after 24 hrs by western blot analysis; format: cell-based; conditions: filed as antagonist, dose 12.5-50 µM
U-87 MG [44] = assay: Induction of apoptosis in human U87 cells assessed as early apoptotic cells at 25 uM measured after 24 hrs by annexin V-FITC/propidium iodide staining based flow cytometry analysis (reference value: 4.35%); format: functional, U-87MG ATCC

NC(=O)C1CCN(C(=O)c2ccc(CSc3nc4cccnc4n3Cc3ccccc3)cc2)CC1
IC50 (GL261 [1]): 56.7 µM
IC50 (Hs 683): 62.3 µM
IC50 (U-87 MG [2]): 60.3 µM

O=C(C[C@@]1(O)C(=O)N(Cc2cccc(Cl)c2)c2ccccc21)c1ccccn1
Activity [3]: Non-Toxic
IC50 (GL261 [1]): 38.2 µM
Rmax (Homo sapiens [4]): 83.6 RU
Activity (U-87 MG [5]): 68.8%
Activity (GL261 [6]): 69.3%
Activity (GL261 [7]): 8.24%
inhibition (U87 [8]): Active
viability at 25 µM (GL261 [9]): 70.2%
viability at 50 µM (GL261 [10]): 6.58%
Activity (GL261 [11]): 16%
IC50 (Hs 683): 34.2 µM
Activity (GL261 [12]): 11%
Activity (L02): Non-Toxic
Ka (Homo sapiens [13]): 24.8 M⁻¹ s⁻¹
Activity (U-87 MG [14]): 2.72%
Activity (U-87 MG [15]): 43.9%
Activity (GL261 [16]): Dose-Dependent Effect
Activity (GL261 [17]): 13.11%
Activity [18]: Non-Toxic
inhibition (U87 [19]): Active
inhibition (U87 [20]): Dose-Dependent Effect
Activity (U-87 MG [21]): 27.3%
Activity [22]: Non-Toxic
Activity [23]: 49.7%
Activity (GL261 [24]): Dose-Dependent Effect
viability at 50 µM (U-87 MG [25]): 2.61%
inhibition (U87 [26]): Active
solubility [27]: Soluble
Activity [28]: 57.8%
Activity (U-87 MG [29]): Dose-Dependent Effect
inhibition (U87 [30]): Dose-Dependent Effect
IC50 (U-87 MG [2]): 27.3 µM
Activity (U-87 MG [31]): 5.59%
inhibition (U87 [32]): Dose-Dependent Effect
Activity [33]: Non-Toxic
Activity (U-87MG ATCC [34]): Active
Activity (NIH3T3): Non-Toxic
Kd [35]: 0.129 µM
Activity [36]: Non-Toxic
Activity (U-87 MG [37]): Dose-Dependent Effect
Activity (U-87MG ATCC [38]): Active
Activity (GL261 [39]): 13.1%
Activity (U-87 MG [40]): 1.29%
viability at 25 µM (U-87 MG [41]): 8.04%
inhibition (U87 [42]): Active
inhibition (U87 [43]): Active
Activity (U-87 MG [44]): 45.4%

COc1ccc(N2C(=O)C[C@H](C(=O)NC3CCCCC3)[C@H]2c2ccc(F)cc2)cc1
IC50 (GL261 [1]): 90.2 µM
IC50 (Hs 683): 84.5 µM
IC50 (U-87 MG [2]): 77.9 µM

CC1Oc2ccc(S(=O)(=O)Nc3ccc(CCC(=O)O)cc3)cc2NC1=O (stereo unspecified)
IC50 (GL261 [1]): 52.5 µM
IC50 (Hs 683): 41.5 µM
IC50 (U-87 MG [2]): 47.4 µM
